The source of these data is ChEMBL document CHEMBL1201862, “PubChem BioAssay data set” (2004).

Calls of active or inactive are those of the source.

Test [1] has as its target Dual specificity tyrosine-phosphorylation-regulated kinase 1A (Rattus norvegicus, UniProt Q63470). It counts as biochemical, Homo sapiens.
The next test concerns the target T1, Caspase-3 (Homo sapiens, UniProt P42574).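 Further: Dose-response selectivity test against caspase-3 for candidate inhibitors of sentrin-specific proteases (SENPs).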
T1 sequence (P42574 whole entry): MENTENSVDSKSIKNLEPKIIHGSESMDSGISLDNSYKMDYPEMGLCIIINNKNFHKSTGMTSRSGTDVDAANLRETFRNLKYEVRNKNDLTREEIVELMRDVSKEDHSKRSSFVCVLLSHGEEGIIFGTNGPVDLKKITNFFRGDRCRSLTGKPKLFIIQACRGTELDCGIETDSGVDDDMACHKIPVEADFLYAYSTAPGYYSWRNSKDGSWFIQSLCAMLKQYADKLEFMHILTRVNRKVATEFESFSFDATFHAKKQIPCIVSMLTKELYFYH
It counts as functional.

Test [2] concerns the target T2, Sentrin-specific protease 7 (Homo sapiens, UniProt Q9BQF6).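 Further: Luminescence-based dose-response confirmation of ultra-high-throughput screening hits, measuring inhibition of SENP7.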
T2 sequence (Q9BQF6 whole entry): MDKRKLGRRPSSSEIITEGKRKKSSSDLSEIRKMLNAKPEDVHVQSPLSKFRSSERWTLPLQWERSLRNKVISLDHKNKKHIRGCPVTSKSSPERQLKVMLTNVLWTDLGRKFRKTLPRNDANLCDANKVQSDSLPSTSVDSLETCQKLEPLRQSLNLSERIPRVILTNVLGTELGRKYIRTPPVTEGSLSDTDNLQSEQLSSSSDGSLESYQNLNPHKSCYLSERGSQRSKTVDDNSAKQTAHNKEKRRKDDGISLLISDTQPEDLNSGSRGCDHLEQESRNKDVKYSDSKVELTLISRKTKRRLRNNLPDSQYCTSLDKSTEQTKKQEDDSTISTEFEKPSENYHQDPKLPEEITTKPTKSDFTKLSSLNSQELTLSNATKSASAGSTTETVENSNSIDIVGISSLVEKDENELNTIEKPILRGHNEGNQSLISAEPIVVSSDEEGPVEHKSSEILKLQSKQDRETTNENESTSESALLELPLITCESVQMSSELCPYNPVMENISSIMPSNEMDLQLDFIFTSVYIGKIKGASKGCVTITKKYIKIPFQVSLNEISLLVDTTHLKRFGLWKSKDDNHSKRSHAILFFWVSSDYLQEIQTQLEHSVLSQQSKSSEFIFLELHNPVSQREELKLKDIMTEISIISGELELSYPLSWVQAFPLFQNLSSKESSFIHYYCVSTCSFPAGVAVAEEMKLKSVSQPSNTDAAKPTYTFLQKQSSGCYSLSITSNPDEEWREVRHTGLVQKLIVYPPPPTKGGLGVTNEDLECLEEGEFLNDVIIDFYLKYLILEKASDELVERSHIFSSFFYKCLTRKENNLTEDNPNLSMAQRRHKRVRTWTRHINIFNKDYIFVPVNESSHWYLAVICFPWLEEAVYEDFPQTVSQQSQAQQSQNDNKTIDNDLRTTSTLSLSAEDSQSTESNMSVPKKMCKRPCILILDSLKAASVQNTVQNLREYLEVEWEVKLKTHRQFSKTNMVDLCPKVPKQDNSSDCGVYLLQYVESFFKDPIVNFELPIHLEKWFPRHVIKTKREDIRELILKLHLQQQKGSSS
It counts as functional.

For test [3], the target named is T3, Sentrin-specific protease 6 (Homo sapiens, UniProt Q9GZR1).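 Further: Luminescence-based dose-response confirmatory assay of SENP6 inhibition, following up an ultra-high-throughput screen.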
T3 sequence (Q9GZR1 whole entry): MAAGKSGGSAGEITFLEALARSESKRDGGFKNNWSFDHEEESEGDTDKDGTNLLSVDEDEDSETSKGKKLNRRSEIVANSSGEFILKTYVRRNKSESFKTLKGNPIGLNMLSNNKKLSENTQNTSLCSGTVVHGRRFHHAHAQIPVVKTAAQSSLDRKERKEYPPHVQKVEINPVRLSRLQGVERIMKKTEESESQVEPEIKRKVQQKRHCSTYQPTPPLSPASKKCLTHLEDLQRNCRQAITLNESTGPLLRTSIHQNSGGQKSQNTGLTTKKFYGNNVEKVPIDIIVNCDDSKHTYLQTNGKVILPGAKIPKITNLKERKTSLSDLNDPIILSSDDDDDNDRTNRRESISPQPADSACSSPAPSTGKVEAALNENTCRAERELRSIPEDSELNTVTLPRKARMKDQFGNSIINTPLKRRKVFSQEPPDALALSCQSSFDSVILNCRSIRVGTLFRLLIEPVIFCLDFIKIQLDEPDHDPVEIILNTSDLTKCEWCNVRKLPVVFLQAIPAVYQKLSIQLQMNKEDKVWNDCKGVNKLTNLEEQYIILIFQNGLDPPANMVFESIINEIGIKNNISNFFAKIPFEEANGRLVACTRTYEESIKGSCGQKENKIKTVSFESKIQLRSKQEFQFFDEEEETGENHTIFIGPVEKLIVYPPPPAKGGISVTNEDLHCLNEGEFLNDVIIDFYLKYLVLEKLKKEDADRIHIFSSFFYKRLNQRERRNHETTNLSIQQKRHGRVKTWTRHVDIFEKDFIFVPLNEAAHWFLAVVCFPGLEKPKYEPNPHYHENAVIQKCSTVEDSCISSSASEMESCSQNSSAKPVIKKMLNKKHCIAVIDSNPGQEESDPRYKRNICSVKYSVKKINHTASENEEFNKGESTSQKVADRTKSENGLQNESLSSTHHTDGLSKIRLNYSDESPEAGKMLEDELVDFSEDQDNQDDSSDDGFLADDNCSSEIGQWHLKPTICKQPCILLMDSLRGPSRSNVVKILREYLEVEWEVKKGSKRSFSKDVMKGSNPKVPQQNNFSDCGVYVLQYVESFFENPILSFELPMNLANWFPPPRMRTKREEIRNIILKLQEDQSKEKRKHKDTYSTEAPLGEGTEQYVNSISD
It counts as functional.

Test [4] addresses T4, Sentrin-specific protease 8 (Homo sapiens, UniProt Q96LD8).
T4 sequence (Q96LD8 whole entry): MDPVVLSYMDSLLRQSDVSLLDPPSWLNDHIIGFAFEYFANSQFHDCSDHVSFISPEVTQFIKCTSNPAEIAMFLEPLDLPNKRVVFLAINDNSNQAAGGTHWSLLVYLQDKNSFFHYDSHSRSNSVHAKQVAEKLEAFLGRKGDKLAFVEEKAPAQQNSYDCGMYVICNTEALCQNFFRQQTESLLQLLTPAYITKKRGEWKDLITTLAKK
It counts as functional.

Another test concerns HeLa. Kind of test: HeLa cell cytotoxicity, dose response, cytotoxicity control for MITF activator project, CellTiter-Glo luminescence, cherry-pick samples (AID 540259). It counts as functional, cell-based. The following applies: Homo sapiens. In general terms: In ATP-based viability assays light output follows the ATP content of the culture.
In test [5] the test system is Vero. Kind of test: cells. The following applies: Chlorocebus sabaeus. It counts as functional.
Test [6] deals with Vero. Kind of test: cells. It counts as functional, cell-based. The following applies: Chlorocebus sabaeus.
Test [7] addresses T5, Polyadenylate-binding protein 1 (Homo sapiens, UniProt P11940). Description: PABP1 MLLE–PAM2 binding inhibitor potency, dose response, biochemical, fluorescence polarization, FITC-PAM2 peptide (AID 602259). It counts as functional. The following applies: read-out: IC50_Mean. On the technique in general: Fluorescence polarisation rises when a labelled molecule tumbles more slowly, as on binding a larger partner.

The target of test [8] is T6, Heat shock factor protein 1 (Mus musculus, UniProt P38532).
T6 sequence (P38532 whole entry): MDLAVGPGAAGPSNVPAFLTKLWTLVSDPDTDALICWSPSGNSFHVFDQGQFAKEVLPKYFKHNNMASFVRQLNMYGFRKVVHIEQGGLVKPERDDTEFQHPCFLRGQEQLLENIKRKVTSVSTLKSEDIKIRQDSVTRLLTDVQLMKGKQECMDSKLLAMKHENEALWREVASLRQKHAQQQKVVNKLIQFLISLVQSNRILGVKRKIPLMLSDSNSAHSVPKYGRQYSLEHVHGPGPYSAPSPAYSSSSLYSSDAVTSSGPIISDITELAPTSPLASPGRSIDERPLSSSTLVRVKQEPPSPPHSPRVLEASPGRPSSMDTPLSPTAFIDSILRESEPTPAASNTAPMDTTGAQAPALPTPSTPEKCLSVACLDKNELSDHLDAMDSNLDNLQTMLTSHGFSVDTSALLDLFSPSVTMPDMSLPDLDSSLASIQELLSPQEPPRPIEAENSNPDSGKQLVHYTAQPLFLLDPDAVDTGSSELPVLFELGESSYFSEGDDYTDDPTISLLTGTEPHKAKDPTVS
Kind of test: HSF1 potentiators in luciferase reporter cells, confirmation, cell-based, NIH3T3, luminescence, dose retest (AID 435004).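 Further: stress induced by proteasome inhibitor MG132 added 30 min after compound; luciferase reporter driven by HSF1 response element in NIH3T3 cells; actives raise luminescence as potentiators of the MG132 stress response.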 It counts as functional.

In test [9] the target is T5, Polyadenylate-binding protein 1. Kind of test: PABP1 MLLE–PAM2 interaction inhibitors, dose response, miRNA deadenylation inhibitor project, biochemical, fluorescence polarization, Cy5-PAM2 peptide, secondary (AID 602260). The following applies: read-out: IC50_Mean. It counts as functional.
The next test deals with Streptococcus. Description: Group A Streptococcus viability loss, dose response, counter-screen for streptokinase expression inhibitor project, luminescence, BacTiterGlo (AID 1915).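 Further: potency for reduction of bacterial viability or growth.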 It counts as functional, organism-based. On the technique in general: The purpose of a counterscreen is to sort out artefacts and off-target activity.
Test [10] deals with Streptococcus sp. 'group A'. Kind of test: growth inhibition of control SK(-) GAS strain, dose response, counter-screen for streptokinase expression inhibitor project, luminescence, kanamycin, BacTiterGlo, confirmation (AID 1900). It counts as functional, organism-based.
The nature of test [11]: inhibitors of firefly luciferase expression or activity, dose response, H4 neuroglioma cells, luminescence (AID 1990). It counts as functional, cell-based.
Another test addresses Paired box protein Pax-8 (Homo sapiens, UniProt Q06710). Description: inhibitors of PAX8-driven TPO luciferase reporter, dose response, RMG-I cells, cherry-pick (AID 687027).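 Further: luciferase reporter driven by Pax8 target thyroperoxidase promoter measured by SteadyGlo luminescence.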 It counts as functional, cell-based.
The nature of test [12]: Luminescence Cell-Based Dose Response HTS to Identify Inhibitors of 5'UTR Stem-Loop Driven Prion Protein mRNA Translation in H4 Neuroglioblastoma Cells. [Related pubchem assays: 1827 (Project Summary), 1813 (Primary HTS)]. It counts as functional.
Test [13] can be described thus: inhibitors of SNCA 5'UTR-driven reporter translation, confirmation, H4 neuroglioma cells, luminescence (AID 1988). It counts as functional, cell-based.
For test [14], the target named is T7, RNA-binding protein pos-1 (Caenorhabditis elegans, UniProt G5EF15).
T7 sequence (G5EF15 whole entry): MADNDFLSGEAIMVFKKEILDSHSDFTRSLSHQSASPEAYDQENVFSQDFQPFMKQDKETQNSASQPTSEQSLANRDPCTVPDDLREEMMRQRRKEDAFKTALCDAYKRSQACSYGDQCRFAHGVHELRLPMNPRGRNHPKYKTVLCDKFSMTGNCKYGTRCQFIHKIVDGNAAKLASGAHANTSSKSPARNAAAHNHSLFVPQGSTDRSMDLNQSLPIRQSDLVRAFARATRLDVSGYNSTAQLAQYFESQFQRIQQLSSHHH
Kind of test: inhibitors of POS-1/mex-3 RNA binding, dose response, biochemical, fluorescence polarization (AID 1964).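 Further: purified POS-1 fused to maltose binding protein made in E. coli; potency of compounds blocking POS-1 binding to fluorescent RNA.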

In test [15] the target is T8, Zinc finger protein mex-5 (Caenorhabditis elegans, UniProt Q9XUB2).
T8 sequence (Q9XUB2 whole entry): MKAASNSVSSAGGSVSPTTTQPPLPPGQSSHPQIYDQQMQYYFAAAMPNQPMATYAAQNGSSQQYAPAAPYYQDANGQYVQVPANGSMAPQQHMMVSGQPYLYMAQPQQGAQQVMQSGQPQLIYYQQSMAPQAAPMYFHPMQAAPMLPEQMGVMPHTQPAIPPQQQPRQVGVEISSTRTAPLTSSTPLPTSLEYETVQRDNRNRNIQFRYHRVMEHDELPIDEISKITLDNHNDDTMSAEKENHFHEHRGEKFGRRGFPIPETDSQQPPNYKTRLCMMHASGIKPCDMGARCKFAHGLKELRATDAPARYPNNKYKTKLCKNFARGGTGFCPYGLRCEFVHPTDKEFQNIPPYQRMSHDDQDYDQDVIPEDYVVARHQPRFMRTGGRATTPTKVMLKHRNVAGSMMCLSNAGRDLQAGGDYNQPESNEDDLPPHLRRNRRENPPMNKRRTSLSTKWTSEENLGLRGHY
Kind of test: MEX-5/TCR-2 RNA interaction inhibitors, dose response, biochemical, C. elegans, fluorescence polarization (AID 1960).

T5 sequence (P11940 whole entry): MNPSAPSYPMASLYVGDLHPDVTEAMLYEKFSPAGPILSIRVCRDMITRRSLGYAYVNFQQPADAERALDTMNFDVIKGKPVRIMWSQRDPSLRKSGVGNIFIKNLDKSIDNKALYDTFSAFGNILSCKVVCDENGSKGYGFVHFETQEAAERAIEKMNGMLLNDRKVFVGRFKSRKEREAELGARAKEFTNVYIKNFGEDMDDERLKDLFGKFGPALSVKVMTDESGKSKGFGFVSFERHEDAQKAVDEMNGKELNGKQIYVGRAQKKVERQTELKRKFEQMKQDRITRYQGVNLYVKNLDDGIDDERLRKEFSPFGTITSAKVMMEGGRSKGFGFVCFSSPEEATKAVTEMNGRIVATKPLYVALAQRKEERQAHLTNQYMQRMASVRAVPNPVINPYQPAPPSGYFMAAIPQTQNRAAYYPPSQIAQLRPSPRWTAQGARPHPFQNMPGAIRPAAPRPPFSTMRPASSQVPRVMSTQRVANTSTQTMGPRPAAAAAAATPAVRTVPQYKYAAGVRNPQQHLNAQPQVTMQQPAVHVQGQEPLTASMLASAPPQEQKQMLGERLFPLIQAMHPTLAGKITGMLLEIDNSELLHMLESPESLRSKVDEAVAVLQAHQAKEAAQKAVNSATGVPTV
Sequence of Paired box protein Pax-8 (Q06710 whole entry): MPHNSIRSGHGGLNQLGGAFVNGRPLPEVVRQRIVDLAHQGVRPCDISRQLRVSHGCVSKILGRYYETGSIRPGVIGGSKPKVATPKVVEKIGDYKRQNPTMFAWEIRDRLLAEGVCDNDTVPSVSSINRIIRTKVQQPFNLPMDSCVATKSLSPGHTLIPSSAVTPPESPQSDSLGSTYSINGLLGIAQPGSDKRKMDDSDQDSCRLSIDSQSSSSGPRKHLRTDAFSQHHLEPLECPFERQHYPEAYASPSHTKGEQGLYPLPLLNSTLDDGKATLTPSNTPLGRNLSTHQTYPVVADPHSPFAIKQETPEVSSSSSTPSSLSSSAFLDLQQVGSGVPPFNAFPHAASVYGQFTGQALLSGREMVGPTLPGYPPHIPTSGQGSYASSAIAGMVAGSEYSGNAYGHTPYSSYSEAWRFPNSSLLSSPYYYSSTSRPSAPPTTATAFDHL

Take `N=C(N)NC(=O)c1nc(Cl)c(N)nc1N`: the AC50 (in general, the midpoint of the concentration-response curve, whichever way the signal moves) in [1] is 9.17 µM (active).
As for `Clc1ccc(COn2nnc3ccccc32)c(Cl)c1`, the IC50 on Caspase-3 is 24.1 µM (active); in test [2], 8.88 µM (active); in test [3], 31.2 µM (active); in test [4], 35.3 µM (active). Besides, in the test with HeLa, the AC50 was 77.9 µM (active).
Regarding `CCCSc1ccc(C(=O)Nc2ccc(F)cc2F)cn1`, the AC50 with HeLa was 88.6 µM (active).
Regarding `Cc1cc(O)c(C(=O)/C=C/c2ccc(Cl)cc2)c(=O)o1`, in the test with Vero [5], the CC50 (usually the concentration giving 50% cytotoxicity) was 17.6 µM (active). Besides, the IC50 in the test with Vero [6] is > 25 µM (active).
Take `CCN(CC)S(=O)(=O)c1ccc(C)c(NC(S)=Nc2cccc(S(=O)(=O)N3CCCCCC3)c2)c1`: the CC50 in the test on Vero [5] was 18.7 µM (active). Besides, the IC50 is > 66 µM (inactive) in test [7], > 66 µM (inactive) in [9] and > 25 µM (active) in the test on Vero [6]. The EC50 (as a rule, the concentration needed to bring the measured effect to its halfway point) in test [8] was > 260 µM (inactive).
`Cc1cc2ncc(-c3ccc(Cl)cc3)c(N)n2n1`: the AC50 in the test with HeLa was 68.3 µM (active).
For the compound `COc1ccc(CC(=O)NC(=S)NNC(=O)COc2c(C)cccc2C)cc1`, in the test with Vero [5], the CC50 is > 25 µM (active). The EC50 was 6.88 µM (active) in the test on Streptococcus and 0.124 µM (active) in test [10]. The IC50 with Vero [6] is 11.4 µM (active).
Take `COc1ccc(/C=C2\SC(=S)N(C(C)C(=O)NC3C=CS(=O)(=O)C3)C2=O)cc1` (centres undefined): the AC50 in test [1] was 2.73 µM (active).
With `CC1=CC(C)(C)N2C(=O)C3(NCCc4c3[nH]c3ccccc43)c3cc(C)cc1c32` (centres undefined), the concentration giving a half-maximal response (EC50) was 12.2 µM (active) in [11], > 120 µM (not active) in test [12] and > 120 µM (not active) in test [13]. For the same compound, the CC50 in the test with Vero [5] was > 25 µM (active). Further, the AC50 at Paired box protein Pax-8 is 7.27 µM (active). In the test on Vero [6], the IC50 is 22.7 µM (active).
Take `c1ccc2oc(CCc3nc4ccccc4o3)nc2c1`: the EC50 in test [14] and in test [15] was > 300 µM (not active) throughout. For the same compound, the AC50 in the test with HeLa was 56.3 µM (active).
